Results from publication PMC5484777 (Journal of medicinal chemistry, 2016).
Entries after “also recorded” stand apart in the source; their conditions may differ.

Key:
[1] = In vivo PET-CT imaging; design: species or system female athymic nude mice; settings: intravenous bolus, dynamic PET, mice
[2] = Ex vivo brain biodistribution and autoblockade of [11C]11e; assay type: in vivo, CD-1 mice; settings: 15–75 min uptake, IV, mice (Figure 4A,B)
[3] = target: GluN1/2D receptors (Rattus norvegicus, UniProt P35439+Q62645); assay type: cell-based
[4] = target: GluN1/2A receptors (Rattus norvegicus, UniProt P35439+Q00959); assay type: cell-based
[5] = target: GluN1/2B receptors (Rattus norvegicus, UniProt P35439+Q00960); assay type: cell-based
[6] = target: GluN1/2C receptors (Rattus norvegicus, UniProt P35439+Q00961); assay type: cell-based
[7] = target: GluN1/2A receptors (Rattus norvegicus, UniProt Q00959); assay type: cell-based; settings: ratio est Ki GluN1/2B / GluN1/2A
[8] = Ex vivo brain autoradiography; assay type: in vivo, female athymic nude mice; settings: serial brain sections
[9] = test system: GluN1/2A; settings: cited from earlier work

Chain of GluN1/2D receptors (Q62645 28-1323, other chains not shown): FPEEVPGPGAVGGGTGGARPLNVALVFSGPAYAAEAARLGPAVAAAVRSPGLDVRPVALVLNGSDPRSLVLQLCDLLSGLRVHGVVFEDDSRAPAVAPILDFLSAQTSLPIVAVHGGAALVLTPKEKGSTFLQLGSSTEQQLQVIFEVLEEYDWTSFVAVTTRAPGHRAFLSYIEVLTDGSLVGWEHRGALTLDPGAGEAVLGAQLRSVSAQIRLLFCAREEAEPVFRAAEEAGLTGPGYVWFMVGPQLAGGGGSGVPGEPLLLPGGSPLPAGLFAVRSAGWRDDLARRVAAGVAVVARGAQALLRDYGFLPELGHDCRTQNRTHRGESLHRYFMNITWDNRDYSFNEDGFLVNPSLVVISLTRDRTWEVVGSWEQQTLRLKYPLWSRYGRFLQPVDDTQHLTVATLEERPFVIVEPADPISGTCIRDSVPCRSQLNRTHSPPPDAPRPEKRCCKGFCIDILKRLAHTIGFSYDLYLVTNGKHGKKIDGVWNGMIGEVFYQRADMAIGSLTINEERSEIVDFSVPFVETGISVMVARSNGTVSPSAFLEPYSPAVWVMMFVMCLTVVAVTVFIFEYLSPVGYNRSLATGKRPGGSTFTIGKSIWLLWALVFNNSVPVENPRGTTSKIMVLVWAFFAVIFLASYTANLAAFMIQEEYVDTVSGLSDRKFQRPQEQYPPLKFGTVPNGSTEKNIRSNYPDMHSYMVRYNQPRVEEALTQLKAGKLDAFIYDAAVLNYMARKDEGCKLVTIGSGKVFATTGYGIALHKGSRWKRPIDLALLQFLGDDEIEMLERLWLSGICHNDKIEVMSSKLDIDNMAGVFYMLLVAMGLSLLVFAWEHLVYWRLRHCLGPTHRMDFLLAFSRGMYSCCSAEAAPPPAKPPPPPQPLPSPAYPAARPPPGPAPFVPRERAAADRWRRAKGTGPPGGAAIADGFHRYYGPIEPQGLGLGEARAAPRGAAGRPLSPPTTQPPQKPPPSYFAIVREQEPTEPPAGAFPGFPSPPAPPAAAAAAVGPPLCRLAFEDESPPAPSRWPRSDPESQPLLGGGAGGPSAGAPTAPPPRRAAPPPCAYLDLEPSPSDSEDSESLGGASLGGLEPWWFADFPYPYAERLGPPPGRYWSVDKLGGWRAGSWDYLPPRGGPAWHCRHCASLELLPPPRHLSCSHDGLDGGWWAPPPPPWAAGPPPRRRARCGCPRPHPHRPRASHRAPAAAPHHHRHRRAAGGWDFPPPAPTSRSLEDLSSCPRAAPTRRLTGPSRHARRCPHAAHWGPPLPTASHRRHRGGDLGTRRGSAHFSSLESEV
Chain of GluN1/2A receptors (Rattus norvegicus, UniProt Q00959) (Q00959 23-1464, other chains not shown): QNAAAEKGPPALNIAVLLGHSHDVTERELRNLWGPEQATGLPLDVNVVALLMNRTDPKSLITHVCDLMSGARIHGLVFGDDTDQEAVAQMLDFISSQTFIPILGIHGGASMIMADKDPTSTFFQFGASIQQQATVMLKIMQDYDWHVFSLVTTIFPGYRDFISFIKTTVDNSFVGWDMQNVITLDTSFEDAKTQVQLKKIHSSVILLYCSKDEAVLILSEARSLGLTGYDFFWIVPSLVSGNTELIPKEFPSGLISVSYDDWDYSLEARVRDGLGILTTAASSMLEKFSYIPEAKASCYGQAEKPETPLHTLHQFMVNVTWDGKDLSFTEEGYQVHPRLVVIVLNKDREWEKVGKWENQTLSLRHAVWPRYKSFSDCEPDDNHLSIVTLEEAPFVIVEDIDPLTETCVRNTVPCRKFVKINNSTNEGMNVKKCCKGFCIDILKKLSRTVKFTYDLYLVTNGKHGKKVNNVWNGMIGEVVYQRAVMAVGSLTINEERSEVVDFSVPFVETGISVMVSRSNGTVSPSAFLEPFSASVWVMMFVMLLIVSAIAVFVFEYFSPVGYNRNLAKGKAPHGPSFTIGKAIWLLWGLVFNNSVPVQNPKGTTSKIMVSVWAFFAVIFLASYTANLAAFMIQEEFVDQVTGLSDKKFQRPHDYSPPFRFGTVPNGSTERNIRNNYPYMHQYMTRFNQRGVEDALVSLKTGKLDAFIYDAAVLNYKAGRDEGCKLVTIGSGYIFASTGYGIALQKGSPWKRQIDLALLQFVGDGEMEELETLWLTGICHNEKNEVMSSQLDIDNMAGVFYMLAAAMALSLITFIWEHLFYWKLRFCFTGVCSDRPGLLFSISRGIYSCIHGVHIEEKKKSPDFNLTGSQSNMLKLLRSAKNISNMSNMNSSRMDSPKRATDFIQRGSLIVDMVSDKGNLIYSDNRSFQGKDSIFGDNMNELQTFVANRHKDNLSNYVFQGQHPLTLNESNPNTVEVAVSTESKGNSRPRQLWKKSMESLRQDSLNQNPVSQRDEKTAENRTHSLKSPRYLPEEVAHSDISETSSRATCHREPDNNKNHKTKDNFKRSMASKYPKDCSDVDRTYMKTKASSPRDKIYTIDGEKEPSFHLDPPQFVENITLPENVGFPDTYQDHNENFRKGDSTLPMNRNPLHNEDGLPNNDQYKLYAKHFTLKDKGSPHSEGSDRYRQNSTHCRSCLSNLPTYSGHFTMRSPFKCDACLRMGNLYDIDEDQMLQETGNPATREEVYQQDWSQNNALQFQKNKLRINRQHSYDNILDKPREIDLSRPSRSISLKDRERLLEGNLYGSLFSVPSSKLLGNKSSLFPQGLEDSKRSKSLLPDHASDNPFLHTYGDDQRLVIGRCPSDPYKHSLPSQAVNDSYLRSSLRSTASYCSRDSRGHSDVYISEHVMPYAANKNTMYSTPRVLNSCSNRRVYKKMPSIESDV
Chain of GluN1/2A receptors (Rattus norvegicus, UniProt P35439+Q00959) (Q00959 23-1464, other chains not shown): as above

SMILES	IC50 [3] [nM]	Ki [3] [nM]	IC50 [4] [nM]	Ki [4] [nM]	IC50 [5] [nM]	Ki [5] [nM]	IC50 [6] [nM]	Ki [6] [nM]	estimated Ki fold higher at GluN1/2B compared to GluN1/2A (selectivity) [7] [fold]	further results
COC(=O)C1=NN(c2ccc([124I])cc2)[C@@H](C[C@@H](N)C(=O)OC)C1 [[^124I]11d, Methyl (S)-5-((R)-2-Amino-3-methoxy-3-oxopropyl)-1-(4-[^124I]-iodophenyl)-4,5-dihydro-1H-pyrazole-3-carboxylate]	–	–	–	–	–	–	–	–	–	brain uptake by in vivo PET imaging [1]: below the threshold of detection; also recorded: no observable brain uptake
COC(=O)C1=NN(c2ccc([11CH3])cc2)[C@@H](C[C@@H](NC(=O)OC(C)(C)C)C(=O)OC)C1 [[^11C]11e, Methyl (S)-5-((R)-2-((tert-Butoxycarbonyl)amino)-3-methoxy-3-oxopropyl)-1-(4-[^11C]methylphenyl)-4,5-dihydro-1H-pyrazole-3-carboxylate]	–	–	–	–	–	–	–	–	–	uptake in brain regions [2]: below 1.5 % ID/g
N[C@H](C[C@H]1CC(C(=O)O)=NN1c1ccc(Br)cc1)C(=O)O [4c, (S)-5-((R)-2-Amino-2-carboxyethyl)-1-(4-bromophenyl)-4,5-dihydro-1H-pyrazole-3-carboxylic Acid]	630 ± 40	200 ± 10	91 ± 4	25 ± 1	250 ± 20	94 ± 7	190 ± 10	47 ± 3	–	–
N[C@H](C[C@H]1CC(C(=O)O)=NN1c1ccc(Cl)cc1)C(=O)O [4b, (S)-5-((R)-2-Amino-2-carboxyethyl)-1-(4-chlorophenyl)-4,5-dihydro-1H-pyrazole-3-carboxylic Acid]	520 ± 20	160 ± 10	98 ± 4	27 ± 1	280 ± 20	110 ± 10	180 ± 10	44 ± 2	4.0	–
N[C@H](C[C@H]1CC(C(=O)O)=NN1c1ccc([125I])cc1)C(=O)O [[^125I]4d, (S)-5-((R)-2-Amino-2-carboxyethyl)-1-(4-[^125I]iodophenyl)-4,5-dihydro-1H-pyrazole-3-carboxylic Acid]	–	–	–	–	–	–	–	–	–	brain uptake (ex vivo autoradiography) ([8]; 60 min conscious uptake): no evidence of brain uptake
Cc1ccc(N2N=C(C(=O)O)C[C@@H]2C[C@@H](N)C(=O)O)cc1 [4e, (S)-5-((R)-2-Amino-2-carboxyethyl)-1-p-tolyl-4,5-dihydro-1H-pyrazole-3-carboxylic Acid]	–	440 ± 20	180 ± 10	48 ± 3	690 ± 50	250 ± 20	380 ± 20	96 ± 5	5.3	–
COC(=O)C1=NN(c2ccc([125I])cc2)[C@@H](C[C@@H](N)C(=O)OC)C1 [[^125I]11d, Methyl (S)-5-((R)-2-Amino-3-methoxy-3-oxopropyl)-1-(4-[^125I]-iodophenyl)-4,5-dihydro-1H-pyrazole-3-carboxylate]	–	–	–	–	–	–	–	–	–	brain uptake (ex vivo autoradiography) ([8]; 40 min conscious uptake): brain region-selective uptake
C[C@H](N[C@@H](c1cccc2[nH]c(=O)c(=O)[nH]c12)P(=O)(O)O)c1ccc(Br)cc1 [NVP-AAM077, [(R)-[(S)-1-(4-bromophenyl)-ethylamino]-(2,3-dioxo-1,2,3,4-tetrahydroquinoxalin-5-yl)-methyl]-phosphonic acid]	–	–	–	–	–	–	–	–	–	binding affinity fold higher for GluN1/2A compared to GluN1/2B [9]: 5.2 fold
N[C@H](C[C@H]1CC(C(=O)O)=NN1c1ccc(I)cc1)C(=O)O [4d, (S)-5-((R)-2-Amino-2-carboxyethyl)-1-(4-iodophenyl)-4,5-dihydro-1H-pyrazole-3-carboxylic Acid]	–	–	910 ± 80	250 ± 20	700 ± 40	270 ± 20	560 ± 20	140 ± 10	–	–
N[C@H](C[C@H]1CC(C(=O)O)=NN1c1ccc(F)cc1)C(=O)O [4a, (S)-5-((R)-2-Amino-2-carboxyethyl)-1-(4-fluorophenyl)-4,5-dihydro-1H-pyrazole-3-carboxylic Acid]	920 ± 20	290 ± 10	160 ± 10	43 ± 2	860 ± 10	330 ± 40	920 ± 20	230 ± 10	7.6	–
